Reference: article PMC7767178 (International Journal of Molecular Sciences, 2020)
Values after ≈ are worked out from the molar mass of the structure shown.

How the values were obtained:
[1] = tested on: Salmonella typhimurium ATCC14028; assay type: cell-based; details: Salmonella typhimurium ATCC14028; broth dilution, 37 °C, 16–18 h, three experiments
A. veronii ACCC61732 = assay: Outer membrane permeabilization, NPN assay; assay type: cell-based; details: NPN fluorescence, 1×–4× MIC
Description: The outer membrane permeabilization abilities of peptides were determined using the fluorescent NPN assay. Mid-log phase A. veronii ACCC61732 was collected by centrifugation, washed twice, and then suspended in N-2-hydroxyethylpiperazine-n-2-ethane sulfonic acid (HEPES) buffer (pH 7.4) to an OD600nm = 0.4. […] Fluorescence intensity was recorded until no further increase with a microplate reader (excitation/emission, 328/438 nm).

mice = assay: Toxic effect on mice; assay type: in vivo; details: reason for exclusion from the mouse models
pepsin = details: pH 2

CC(C)[C@@H]1NC(=O)CNC(=O)[C@H](CC(N)=O)NC(=O)[C@H](CCCNC(=N)N)NC(=O)[C@H](Cc2ccc(O)cc2)NC(=O)[C@H](C(C)C)NC(=O)[C@@H](NC(=O)[C@@H](NC(=O)[C@H](CC(N)=O)NC(=O)[C@H](Cc2c[nH]c3ccccc23)NC(=O)[C@H](C)NC(=O)[C@H](Cc2ccccc2)NC(=O)[C@H](CCCN)N=C(N(C)C)N(C)C)C(C)C)CSSC[C@@H](C(=O)N[C@@H](Cc2c[nH]cn2)C(=O)N[C@@H](CCCNC(=N)N)C(=O)N[C@@H](CCCNC(=N)N)C(=O)N[C@@H](C)C(=O)N[C@@H](CC(N)=O)C(N)=O)NC(=O)[C@H](C(C)C)NC(=O)[C@H](CCCNC(=N)N)NC1=O (stereo in doubt) [Guo-N6NH2]
MIC [1]: 4 µg/mL (≈ 1.52 µM) | ability to penetrate the outer membrane (A. veronii ACCC61732): higher ability to penetrate the outer membrane than N6NH2 | toxicity in mice (mice): toxic effect on mice | MIC after pepsin treatment (pepsin): 8 µg/mL (≈ 3.04 µM)
